Experimental data as given in PMC12732581, “Molecular and System-Level Characterization of MMP12 Suppression in Lung Cancer: A Combined Bioinformatics and Molecular Approach” (International Journal of Molecular Sciences, 2025).
Several values for one entry are separate records, joined by “and”; a condition that tells them apart may be missing. Equal entries are not always repeated. Values belong to the compound of their own block, whether it stands above or below them.

Key:
H1299 cells [1] = assay: Annexin V-FITC/PI apoptosis assay (flow cytometry); conditions: H1299, double IC50, 72 h; for Necrosis (%) (Annexin−/PI+, Q1-UL): control 0.7; for Late Apoptosis (%) (Annexin+/PI+, Q1-UR): control 2.6; for Early Apoptosis (%) (Annexin+/PI−, Q1-LR): control 8.7; for Total Apoptosis (%): control 11.3
Protocol: (§6) Apoptosis was assessed using Annexin-V/PI staining, following the method described earlier with minor modifications [84]. […] After the treatment, the cells were collected and stained with Annexin-V-FITC and propidium iodide. The stained cells were then analyzed using a BD FACSCanto II flow cytometer (Becton, Dickinson and Company (BD), Franklin Lakes, NJ, USA) and FACSDiva software (Becton, Dickinson and Company (BD), Franklin Lakes, NJ, USA).

recombinant human MMP12 = target: T1, recombinant human MMP12 (Homo sapiens, UniProt P39900); assay: MMP12 colorimetric thiopeptide enzyme inhibition assay (Abcam); assay type: biochemical
T1 construct: purchased Abcam
T1 sequence (P39900 106-470): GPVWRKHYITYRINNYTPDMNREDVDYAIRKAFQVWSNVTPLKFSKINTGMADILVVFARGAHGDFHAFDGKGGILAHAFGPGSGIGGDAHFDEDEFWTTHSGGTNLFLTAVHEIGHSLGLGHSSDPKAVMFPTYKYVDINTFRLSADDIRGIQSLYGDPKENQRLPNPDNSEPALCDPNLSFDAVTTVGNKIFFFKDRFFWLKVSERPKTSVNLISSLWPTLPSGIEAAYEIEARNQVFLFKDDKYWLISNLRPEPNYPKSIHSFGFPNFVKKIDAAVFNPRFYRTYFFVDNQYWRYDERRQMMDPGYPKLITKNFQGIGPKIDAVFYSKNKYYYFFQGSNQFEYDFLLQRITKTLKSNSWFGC
Protocol: The enzyme inhibition potential of synthesized p-chlorocinnamic acid derivatives against MMP12 was assessed using the Abcam colorimetric assay.
The inhibitory activity of the newly synthesized compounds against MMP12 was assessed using a previously established enzymatic assay protocol, as described in our earlier study. In brief, we conducted a colorimetric thiopeptide-based inhibition assay for MMP12 using recombinant human MMP12 and the reference inhibitor NNGH as a positive control. The IC50 values were calculated using GraphPad Prism version 9 (GraphPad Software, San Diego, CA, USA).

A549 lung cancer cells = assay: MTT cell viability assay, A549; assay type: cell-based, human
Protocol: (§1) To evaluate the impact of MMP12 inhibitors on lung cancer cell lines, an MTT assay was performed on A549, H1299, and H661 cells exposed to varying concentrations of inhibitors over 48, 72, and 96 h.
(§2) The lung cancer cell lines referenced as A549, H1299, and H661 were acquired from the American Type Culture Collection (ATCC, Manassas, VA, USA). Fibroblast cells of dermal origin were used as a model for normal human tissue, which were also purchased from ATCC. A549, H1299, and H661 cells were maintained in the RPMI culture medium, while fibroblast cells were maintained in the DMEM high glucose culture medium. Both RPMI and DMEM culture media were supplemented with 100 U/mL penicillin, 0.1 mg/mL streptomycin to prevent bacterial growth, 10% FBS to promote cell growth, and 2 mM L-glutamine as an energy source.
(§3) The 3-(4,5-dimethylthiazol-2-yl)-2,5-diphenyltetrazolium bromide (MTT) assay was employed to evaluate cell proliferation as previously noted. All experiments were performed in triplicate wells and were repeated at least twice independently. The percentage of the relative cell viability of treated cells versus the untreated cells (negative controls) was calculated using the following formula in Equation (1) (cell viability calculation):(1) Cell viability%=optical density of treated cells/optical density of untreated cells×100

H1299 lung cancer cells = assay: MTT cell viability assay, H1299; assay type: cell-based, human
Protocol: as §1, §2, §3

H661 lung cancer cells = assay: MTT cell viability assay, H661; assay type: cell-based, human
Protocol: as §1, §2, §3

H1299 cells [2] = assay: Wound healing migration assay; assay type: cell-based, human; conditions: for Wound closure %: untreated 99; for Wound migration rate (px/h): untreated 16,702
Protocol: The wound healing migration assay was conducted using H1299 cells, following an established protocol. […] Images were captured at 0 and 48 h, and wound closure was quantified using ImageJ. Digital images were analyzed for wound area using the ImageJ software version 1.53e.

H1299 cells [3] = assay: Soft agar colony formation assay (anchorage-independent growth); assay type: cell-based, human; conditions: for Colony count / Colony average size (px): H1299 soft agar; for Colony count: untreated 920; for Colony average size (px): untreated 746758
Protocol: Figures S12–S16 show a selection of images captured on day 15 at different magnifications: 4× and 20×.
The anchorage-independent colony formation assay was conducted using a previously described method with minor modifications. […] After 14 days of incubation, the colonies were imaged using the EVOS XL Core microscopeThermo Fisher Scientific, Waltham, MA, USA. and quantified.

CD44 mRNA in H1299 cells = assay: qPCR gene expression, CD44; assay type: cell-based, human; conditions: H1299, 0.1 IC50, 72 h
Protocol: (§4) Quantitative real-time PCR (qPCR) was used to assess the impact of MMP12 inhibition in H1299 lung cancer cells.
(§5) Quantitative real-time PCR (qPCR) was conducted as previously described. Lung cancer cell lines (A549, H1299, H661) were seeded at approximately 4 × 10^5 cells per T-25 flask and incubated for 24 h. […] Total RNA was extracted, reverse-transcribed into cDNA, and qPCR was performed using SYBR Green on an Applied Biosystems platform, Foster City, CA, USA. Gene expression was normalized to GAPDH, and the fold-change was calculated using the 2^−ΔΔCt method. The basal expression of MMP12 in untreated A549, H1299, and H661 cells was assessed using the 2^−ΔCt method. Primer sequences and annealing temperatures (Ta) are listed in Table S2 (Supplementary Materials).

[4] = test system: NFKBIA mRNA in H1299 cells; assay: qPCR gene expression, NFKBIA; assay type: cell-based, human; conditions: H1299, 0.1 IC50, 72 h
Protocol: as §4, §5

[5] = test system: PSME3 mRNA in H1299 cells; assay: qPCR gene expression, PSME3; assay type: cell-based, human; conditions: H1299, 0.1 IC50, 72 h
Protocol: as §4, §5

[6] = test system: SPARCL1 mRNA in H1299 cells; assay: qPCR gene expression, SPARCL1; assay type: cell-based, human; conditions: H1299, 0.1 IC50, 72 h
Protocol: as §4, §5

[7] = test system: ADAM9 mRNA in H1299 cells; assay: qPCR gene expression, ADAM9; assay type: cell-based, human; conditions: H1299, 0.1 IC50, 72 h
Protocol: as §4, §5

[8] = test system: APOA1 mRNA in H1299 cells; assay: qPCR gene expression, APOA1; assay type: cell-based, human; conditions: H1299, 0.1 IC50, 72 h
Protocol: as §4, §5

[9] = test system: CCL15 mRNA in H1299 cells; assay: qPCR gene expression, CCL15; assay type: cell-based, human; conditions: H1299, 0.1 IC50, 72 h
Protocol: as §4, §5

[10] = test system: MMP12 mRNA in H1299 cells; assay: qPCR gene expression, MMP12; assay type: cell-based, human; conditions: H1299, 0.1 IC50, 72 h
Protocol: as §4, §5

[11] = test system: MMP12 protein in H1299 cells; assay: Western blot of MMP12 protein expression; assay type: cell-based, human; conditions: for Normalized MMP-12 (to GAPDH), Western blot: untreated H1299 0.9696
Protocol: Western blotting was conducted to assess the protein expression of MMP12 in lung cancer cell lines (A549, H1299, and H661), following the protocol established earlier. In summary, cells were seeded and incubated for 24 h. […] Total protein lysates were prepared, separated by SDS-PAGE, and transferred to nitrocellulose membranes. These membranes were then probed with primary antibodies against MMP12 and GAPDH. The protein bands were visualized using an HRP substrate and analyzed for relative expression.

H1299 cells [12] = assay: Cell cycle analysis (PI staining, flow cytometry); assay type: cell-based, human; conditions: H1299, ½ IC50, 48 h
Protocol: Cell cycle distribution was evaluated in H1299 cells using a modified version of the method described. […] After the treatment period, the cells were fixed with ethanol, stained with a propidium iodide/RNase A solution, and analyzed using a BD FACSCanto II flow cytometer. The data were processed with BD FACSDiva software version 8 (BD Biosciences, San Jose, CA, USA).

H1299 cells [13] = conditions: human, 72 h
Protocol: as §6

[14] = highest listed concentration (IC50)
[15] = lowest listed concentration (¼ IC50)
[16] = middle listed concentration (½ IC50)
[17] = relative to untreated, GAPDH normalized

Structure (SMILES): N.N.[Cl][Pt][Cl] [Cisplatin, reference compound]
- Necrosis (%) (Annexin−/PI+, Q1-UL) (H1299 cells [1]): 1.7%
- Late Apoptosis (%) (Annexin+/PI+, Q1-UR) (H1299 cells [1]): 11.6%
- Early Apoptosis (%) (Annexin+/PI−, Q1-LR) (H1299 cells [1]): 28.6%
- Total Apoptosis (%) (H1299 cells [1]): 40.2%

- inhibition at 50 µM (recombinant human MMP12): 32.9%
- IC50 (A549 lung cancer cells; A549, 72 h): 118 µM
- IC50 (A549 lung cancer cells; Homo sapiens, A549, 48 h): 198 µM
- IC50 (A549 lung cancer cells; Homo sapiens, A549, 72 h): 119 µM
- IC50 (A549 lung cancer cells; Homo sapiens, A549, 96 h): 82 µM
- IC50 (H1299 lung cancer cells; H1299, 72 h): 91 µM and 91.7 µM
- IC50 (H1299 lung cancer cells; Homo sapiens, NCI-H1299, 48 h, H1299, 48 h): 359 µM
- IC50 (H1299 lung cancer cells; Homo sapiens, NCI-H1299, 72 h, H1299, 72 h): 91.7 µM
- IC50 (H1299 lung cancer cells; Homo sapiens, NCI-H1299, 96 h, H1299, 96 h): 99.7 µM
- IC50 (H661 lung cancer cells; H661, 72 h): 34 µM
- IC50 (H661 lung cancer cells; Homo sapiens, NCI-H661, 48 h, H661, 48 h): 60.4 µM
- IC50 (H661 lung cancer cells; Homo sapiens, NCI-H661, 72 h, H661, 72 h): 33.9 µM
- IC50 (H661 lung cancer cells; Homo sapiens, NCI-H661, 96 h, H661, 96 h): 129 µM
Structure (SMILES): O=C(/C=C/c1ccc(Cl)cc1)Nc1ccc(C(=O)c2ccccc2)cc1 [Compound C1]
- Wound closure % (H1299 cells [2]; H1299, 48 h, at IC50 concentration): 10%
- Wound closure % (H1299 cells [2]; H1299, 48 h, at ¼ IC50): 72%
- inhibition of wound closure (H1299 cells [2]; H1299, 48 h, at ½ IC50 (C1 45.9, C7 24.1, C9 21.7, C10 32.7, C15 72.6 µM)): ~50%
- Wound closure % (H1299 cells [2]; H1299, 48 h, at ½ IC50): 50%
- Wound migration rate (px/h) (H1299 cells [2]; H1299, at IC50 concentration): 1,640.73 px/h
- Wound migration rate (px/h) (H1299 cells [2]; H1299, at ¼ IC50): 11,751 px/h
- Wound migration rate (px/h) (H1299 cells [2]; H1299, at ½ IC50): 9,225 px/h
- formation of cell colonies (number and size), in words (H1299 cells [3]; H1299, IC50, ½ IC50 or ¼ IC50, 72 h, vs untreated control): inhibited the formation of cell colonies
- Colony count (H1299 cells [3]; [14]): 292
- Colony average size (px) (H1299 cells [3]; [14]): 51655 px
- Colony count (H1299 cells [3]; [15]): 520
- Colony average size (px) (H1299 cells [3]; [15]): 262500 px
- Colony count (H1299 cells [3]; [16]): 408
- Colony average size (px) (H1299 cells [3]; [16]): 130041 px
- CD44 Fold Change (2^−ΔΔCt) (CD44 mRNA in H1299 cells; [17]): 0.48
- CD44 % Change (CD44 mRNA in H1299 cells; vs untreated control): −52%
- NFKBIA Direction [4]: Up
- NFKBIA Fold Change (2^−ΔΔCt) [4, 17]: 24.33
- NFKBIA % Change ([4]; vs untreated control): +2333%
- PSME3 Fold Change (2^−ΔΔCt) [5, 17]: 0.54
- PSME3 % Change ([5]; vs untreated control): −46%
- SPARCL1 Fold Change (2^−ΔΔCt) [6, 17]: 0.49
- SPARCL1 % Change ([6]; vs untreated control): −51%
- ADAM9 Direction [7]: Up
- ADAM9 Fold Change (2^−ΔΔCt) [7, 17]: 123.60
- ADAM9 % Change ([7]; vs untreated control): +12,260%
- APOA1 Fold Change (2^−ΔΔCt) [8, 17]: 0.79
- APOA1 % Change ([8]; vs untreated control): −21%
- CCL15 Fold Change (2^−ΔΔCt) [9, 17]: 0.03
- CCL15 % Change ([9]; vs untreated control): −97%
- MMP12 Fold Change (2^−ΔΔCt) [10, 17]: 0.78
- MMP12 % Change ([10]; vs untreated control): −22%
- MMP12 protein suppression (Western blot), in words ([11]; H1299, 0.1, ¼ and ½ IC50): less effective
- Normalized MMP-12 (to GAPDH), Western blot ([11]; H1299, 0.1 IC50, 72 h): 0.6296
- Normalized MMP-12 (to GAPDH), Western blot ([11]; H1299, ¼ IC50, 72 h): 0.3747
- Normalized MMP-12 (to GAPDH), Western blot ([11]; H1299, ½ IC50, 72 h): 0.1966
- cells in G2/M phase (H1299 cells [12]): 9.1%
- cells in S phase (H1299 cells [12]): 36.5%
- cells in G0/G1 phase (H1299 cells [12]; untreated 62.5%): 47.4%
- Viable (%) (Annexin−/PI−, Q1-LL) (H1299 cells [13]): 78.6%
- Necrosis (%) (Annexin−/PI+, Q1-UL) (H1299 cells [1]): 1.9%
- Late Apoptosis (%) (Annexin+/PI+, Q1-UR) (H1299 cells [1]): 2.9%
- Early Apoptosis (%) (Annexin+/PI−, Q1-LR) (H1299 cells [1]): 16.6%
- Total Apoptosis (%) (H1299 cells [1]): 19.5%

- MMP12 enzyme inhibition (recombinant human MMP12; at 50 µM): 35.0%
- IC50 (A549 lung cancer cells; A549, 48 h): > 1000 µM
- IC50 (A549 lung cancer cells; A549, 72 h): > 1000 µM
- IC50 (A549 lung cancer cells; A549, 96 h): > 1000 µM
- IC50 (H1299 lung cancer cells; H1299, 48 h): 827 µM
- IC50 (H1299 lung cancer cells; H1299, 72 h): 692 µM
- IC50 (H1299 lung cancer cells; H1299, 96 h): 349 µM
- IC50 (H661 lung cancer cells; H661, 48 h): 599 µM
- IC50 (H661 lung cancer cells; H661, 72 h): 410 µM
- IC50 (H661 lung cancer cells; H661, 96 h): 350 µM
Structure (SMILES): O=C(/C=C/c1ccc(Cl)cc1)Nc1cccc(C(=O)c2ccccc2)c1 [Compound C2]
